According to publication PMC5762535, “Novel indazole-based small compounds enhance TRAIL-induced apoptosis by inhibiting the MKK7-TIPRL interaction in hepatocellular carcinoma” (Oncotarget, 2017):
Read-outs that look alike come from different tables or passages of the source.

How the values were obtained:
[1] = MTT cell viability assay, Huh7 cells; assay type: cell-based, human; conditions: human, Huh7 cells, without TRAIL; for viability: MTT, Supplementary Table 2, read-out: Cell viability assay (%) Compound only
Procedure: (§1) Cell viability was assessed using a 3-(4,5-dimethylthiazol-2-yl)-2,5-diphenyltetrazolium bromide (MTT, Sigma-Aldrich, St. Louis, USA) assay. The cells were seeded at a density of 1 × 10^4 cells per well and treated with the lead compounds and/or TRAIL. After 24 or 48 h, MTT (2 mg/ml) was added to each well, and the absorbance was measured using a microplate reader (Bio-Rad, Hercules, USA) at 570 nm. The cell viability was calculated as the percentage of viable cells in the drug-treated group versus the untreated control using the following equation: cell viability (%) = [OD (drug)-OD (blank)]/[OD (control)-OD (blank)] × 100.

[2] = biological target: T1, MKK7-TIPRL interaction (Homo sapiens, UniProt O14733+O75663); assay: ELISA of the MKK7-TIPRL interaction; assay type: binding; design: The full-length cDNAs of human TIPRL and MKK7 were provided by the Korea Human Gene Bank; His; made in house
T1 sequence (O14733 1-419): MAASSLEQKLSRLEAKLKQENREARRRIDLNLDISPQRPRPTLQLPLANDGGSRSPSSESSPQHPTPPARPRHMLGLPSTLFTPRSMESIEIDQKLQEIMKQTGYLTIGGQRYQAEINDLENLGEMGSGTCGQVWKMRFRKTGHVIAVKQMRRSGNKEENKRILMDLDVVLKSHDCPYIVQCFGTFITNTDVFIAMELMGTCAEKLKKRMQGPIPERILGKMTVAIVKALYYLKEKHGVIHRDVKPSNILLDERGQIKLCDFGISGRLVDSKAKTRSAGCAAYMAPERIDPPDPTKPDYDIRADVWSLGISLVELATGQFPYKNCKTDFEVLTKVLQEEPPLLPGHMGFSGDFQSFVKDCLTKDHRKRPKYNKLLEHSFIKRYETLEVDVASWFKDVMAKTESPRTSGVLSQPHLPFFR
T1 sequence (O75663 1-272): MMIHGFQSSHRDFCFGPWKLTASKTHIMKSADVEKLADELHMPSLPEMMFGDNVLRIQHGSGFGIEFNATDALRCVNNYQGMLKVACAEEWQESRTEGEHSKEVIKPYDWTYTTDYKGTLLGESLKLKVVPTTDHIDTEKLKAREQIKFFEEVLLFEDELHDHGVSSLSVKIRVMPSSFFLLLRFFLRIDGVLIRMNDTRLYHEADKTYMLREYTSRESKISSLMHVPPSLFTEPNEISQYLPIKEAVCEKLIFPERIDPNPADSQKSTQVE
Source text: The full-length cDNAs of human TIPRL and MKK7 were provided by the Korea Human Gene Bank (Korea Research Institute of Biosciences and Biotechnology, South Korea). TIPRL and MKK7 were subcloned into the pET21a vector (purchased from Novagen, San Diego, CA) and the pEBG vector containing a GST tag (kindly provided by Y. Liu, National Institute on Aging, National Institutes of Health) to construct the His-tagged and the GST-tagged plasmids, respectively. Purified TIPRL was conjugated with horseradish peroxidase (HRP). To screen chemical compounds using HTS, an ELISA system that detected the TIPRL and MKK7 interaction was constructed. Briefly, 96-well ELISA plates were coated with GST-MKK7 dissolved in PBS-T buffer (PBS containing 0.05% Tween-20 and 0.5% BSA), followed by the addition of 100 μl of TIPRL-HRP dissolved in PBS-T buffer. After 1 h, 100 μl of tetramethylbenzidine (TMB) solution was added to each well and the absorbance was read at 450 nm.

[3] = tested on: Huh7 cells; assay: MTT cell viability assay, Huh7 cells; assay type: cell-based, human; conditions: for effect on cell viability / cell death of Huh7 cells in the presence of TRAIL: MTT, co-treatment with TRAIL
Procedure: as §1

[4] = tested on: caspase-3; assay: Caspase 3 activity assay in Huh7 cells; assay type: cell-based, human; conditions: each compound at its working concentration and time of the table
Procedure: The caspase 3 activity was measured using a caspase-3 luminescent assay kit (Promega, Madison, WI, USA), according to the manufacturer's instructions, and a luminescence plate reader (Molecular Devices Co., Sunnyvale, USA).

[5] = tested on: Huh7 tumor xenografts; assay: In vivo Huh7 xenograft assay; design: species or system BALB/c nude mice
Source text: Five-week-old female BALB/c nude mice were purchased from SLC Japan and were maintained in accordance with the guidelines of the Institutional Review Committee for Animal Care and Use of the Korea Research Institute of Bioscience and Biotechnology. Protocol approval was obtained from the same committee.
Huh7 cells were harvested and subcutaneously injected (5 × 10^6 cells/mouse) into nude mice (N = 6/group for TRT-0173 or TRT-0029 experiments). When the tumor volume reached ~100 mm^3, the mice were divided into four groups and treated with vehicle, TRAIL (2.5 mg/kg, intraperitoneal), lead compound (TRT-0029 or TRT-0173, 30 mg/kg, intravenously), or lead compound (30 mg/kg, intravenously) combined with TRAIL (2.5 mg/kg, intraperitoneal) daily for 11 days (11 treatments in total). The tumor volumes were measured every 2 days for 11 days after treatment, and tumor volume was calculated according to the following equation: V (mm^3) = width^2 (mm^2) × length (mm)/2. Body weight and tumor mass were measured 11 days after treatment.

[6] = tested on: caspase-3 and PARP; assay: Western blot of cleaved caspase-3 and PARP in Huh7 cells; assay type: cell-based, human; conditions: lead compounds co-treated with TRAIL 100 ng/ml, TRAIL tested alone
Procedure: The cells were lysed in lysis buffer (50 mM Tris-HCl, pH 7.4, 150 mM NaCl, 1% Triton™ X-100, 0.1% SDS, 1 mM EDTA, 1 mM Na3VO4, 1 mM NaF, and protease inhibitor cocktail) and clarified by centrifugation at 14,000×g for 20 min at 4°C. The protein samples were then subjected to Western blotting with the indicated antibodies.

[7] = hit compounds from the in-house library, Supplementary Table 2, read-out: ELISA IC50

Row | Molecule | IC50 [2, 7] | viability [1] | also measured
1 | COc1ccc(S(=O)(=O)Nc2ccc3c(cnn3-c3ccc(F)cc3)c2)cc1 [Compound 4] | 89 nM | 86% | –
2 | Nc1ccc2[nH]ncc2c1 [Compound 5] | 1400 nM | 81% | –
3 | O=Cc1cc([N+](=O)[O-])ccc1F [Compound 6] | 2000 nM | 93% | –
4 | O=[N+]([O-])c1ccc(F)c(/C=N/Nc2ccc(F)cc2)c1 [Compound 7] | 8900 nM | 89% | –
5 | TRAIL: human TRAIL protein, member of the TNF superfamily, used as co-treatment (protein, UniProt P50591 1-281, looked up) Tumor necrosis factor ligand …: MAMMEVQGGPSLGQTCVLIVIFTVLLQSLCVAVTYVYFTNELKQMQDKYSKSGIACFLKEDDSYWDPNDEESMNSPCWQVKWQLRQLVRKMILRTSEETISTVQEKQQNISPLVRERGPQRVAAHITGTRGRSNTLSSPNSKNEKALGRKINSWESSRSGHSFLSNLHLRNGELVIHEKGFYYIYSQTYFRFQEEIKENTKNDKQMVQYIYKYTSYPDPILLMKSARNSCWSKDAEYGLYSIYQGGIFELKENDRIFVSVTNEHLIDMDHEASFFGAFLVG | – | – | anti-cancer effects of TRAIL alone in vivo ([5]; 5 and 2.5 mg/kg, data not shown): dose-dependent anti-cancer effects; reduction of average tumor mass, TRAIL alone ([5]; TRAIL 2.5 mg/kg i.p. daily for 11 days): 24.8%; apoptosis signals (cleaved caspase-3, PARP) by Western blotting [6]: did not activate caspase-3

More lines, main results first:

Row | IC50 [2, 7] | Molecule | viability [1] | also measured
6 | 1700 nM | CC(=O)c1cc(-n2ncc3cc(NS(=O)(=O)c4ccccc4)ccc32)c(Cl)cc1Cl [Compound 3] | 42% | –
7 | 2800 nM | O=[N+]([O-])c1ccc2c(cnn2-c2ccc(F)cc2)c1 [Compound 8] | 69% | –
8 | 1000 nM | Nc1ccc2c(cnn2-c2ccc(F)cc2)c1 [Compound 9] | 90% | –
9 | 3500 nM | CC(=O)c1cc(-n2cc3cc(N)ccc3n2)c(Cl)cc1Cl [Compound 10] | 111% | –
10 | 1000 nM | CC(=O)c1cc(-n2ncc3cc(N)ccc32)c(Cl)cc1Cl [TRT-0002] | 80% | viability at 40 µM ([3]; Homo sapiens, Huh-7, Huh7, MTT, 40 µM, 48 hrs, with TRAIL, Supplementary Table 3, read-out: Cell viability assay Compound + TRAIL): 29%; effect on cell viability / cell death of Huh7 cells in the presence of TRAIL [3]: significantly enhanced TRAIL-induced cell death; effect on cell viability / cell death of Huh7 cells in the presence of TRAIL ([3]; listed as 16): synergetic effect; viability at 48 h, 40 µM ([1]; Huh7, MTT, 40 µM, 48 hrs, Supplementary Table 3, read-out: Cell viability assay Compound only): 81%; IC50 ([2]; newly synthesized TRT-0002, ELISA, read-out: IC50 to inhibit the MKK7-TIPRL interaction): 1400 nM; Caspase 3 activity Compound + TRAIL/Compound [4]: 1.80 ratio
